The target of assay [1] is T1, Tyrosinase (Agaricus bisporus) (UniProt O42713).
T1 sequence (whole entry): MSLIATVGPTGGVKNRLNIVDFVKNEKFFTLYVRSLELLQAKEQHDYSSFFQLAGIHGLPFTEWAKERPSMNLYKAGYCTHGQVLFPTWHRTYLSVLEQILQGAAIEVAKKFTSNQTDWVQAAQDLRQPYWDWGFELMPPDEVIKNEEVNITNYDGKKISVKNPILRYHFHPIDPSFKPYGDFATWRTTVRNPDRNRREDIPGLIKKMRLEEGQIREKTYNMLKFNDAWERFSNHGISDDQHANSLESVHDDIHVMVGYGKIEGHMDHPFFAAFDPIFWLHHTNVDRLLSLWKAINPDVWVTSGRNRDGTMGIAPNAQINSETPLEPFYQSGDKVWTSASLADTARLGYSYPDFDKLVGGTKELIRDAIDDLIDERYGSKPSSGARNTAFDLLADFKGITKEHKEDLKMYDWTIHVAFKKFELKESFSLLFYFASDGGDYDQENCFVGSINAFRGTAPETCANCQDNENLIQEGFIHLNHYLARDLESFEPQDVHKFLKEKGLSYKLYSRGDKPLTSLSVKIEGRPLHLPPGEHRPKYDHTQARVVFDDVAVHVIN
Description: Inhibition of mushroom tyrosinase assessed as inhibition of L-DOPA oxidase activity. The note with it: concentration not given here.

For assay [2], the target named is T2, Tyrosinase (Agaricus bisporus, UniProt O42713).
T2 sequence (O42713 whole entry): T1 sequence (whole entry)

Assay [3] addresses T2, Tyrosinase. Nature of the assay: Competitive inhibition of mushroom tyrosinase assessed as inhibition of L-DOPA oxidase activity.

This passage reports inhibition, Ki and IC50 results from ChEMBL document CHEMBL3399982, “Azachalcones: a new class of potent polyphenol oxidase inhibitors” (Bioorg Med Chem Lett, 2015).

SMILES strings stand for the structures.

Turning to `CN(C)c1ccc(/C=C/C(=O)c2ccccc2O)cc1`, the inhibition (in general, the percentage by which the read-out fell short of the control) in assay [1] is 27.2%.

Turning to `O=C(/C=C/c1ccccn1)c1ccccc1`, the inhibition in assay [1] came to 34%.

With `O=C(/C=C/c1ccccn1)c1ccccc1O`, the inhibition in assay [1] was 56.8%.

On to `O=C(/C=C/c1cccnc1)c1ccccc1O`, for which the inhibition in assay [1] was 49.3%.

Consider `CN(C)c1ccc(/C=C/C(=O)c2ccccn2)cc1`, for which, in assay [1], the inhibition amounted to 39.7%.

Take `O=C(/C=C/c1cccc([N+](=O)[O-])c1)c1ccccc1`: the inhibition in assay [1] came out at 18%.

On to `O=C(/C=C/c1cnc2ccccc2c1)c1ccccc1O`, for which the inhibition in assay [1] amounted to 12.3%.

For the compound `COc1ccc(/C=C/C(=O)c2ccccn2)c(OC)c1`, the inhibition in assay [1] was 42.7%.

Consider `Oc1ccccc1C(O)/C=C/c1ccncc1` (configuration not stated), for which the affinity on Tyrosinase [2], expressed as Ki, was 8100 nM. For the same compound, the inhibition in assay [1] was 57.2%. On Tyrosinase [3], the IC50 – broadly, the point on the concentration scale where inhibition reaches its midpoint – is 2300 nM.

As to `O=C(/C=C/c1ccc2ccccc2n1)c1ccccc1O`, in assay [1], the inhibition worked out at 8.9%.

On to `O=C(/C=C/c1cccc([N+](=O)[O-])c1)c1ccccc1O`, for which, in assay [1], the inhibition was determined as 42.2%.

`O=C(/C=C/c1ccncc1)c1ccccc1O`: the inhibition in assay [1] was 39.7%.

Consider `Oc1ccccc1C(O)/C=C/c1ccccn1` (configuration not stated), for which the Ki (usually the dissociation constant of the complex between target and ligand, obtained from inhibition or displacement) at Tyrosinase [2] came out at 2620 nM. Besides, in assay [1], the inhibition stood at 80.2%. The IC50 on Tyrosinase [3] worked out at 1700 nM.
